# From paper PMC9114382, “The K-Ras(G12D)-inhibitory peptide KS-58 suppresses growth of murine CT26 colorectal cancer cell-derived tumors” (Scientific Reports, 2022)
# Numbered stars: 1 amine (or outer) side, 2 acyl side, 3 side chain; on linkers, the order of the positions; unused ones are H or OH. Bridge positions count the residues as written; N and C are the ends. Square brackets hold non-standard residues; d marks the D form. Peptide text beside a SMILES is read from it. Phe(4-F) = N[C@@H](Cc1ccc(F)cc1)C(=O)O; X1 = CCCCCCC[C@H](N[*:1])C(=O)[*:2]; Nle = CCCC[C@H](N)C(=O)O; X2 = C(C[*:1])C[*:2]; βAla = NCCC(=O)O
# Experiments:
# [1] = Stability in human liver microsomes; type: in vitro ADME; conditions: human hepatic microsomes (XenoTech), with NADP cofactor, 37 °C, 1 h incubation, LC-MS/MS, read-out: fraction of initial concentration remaining in human liver microsomes
# Experimental: (§1) Experimental procedures that involved animals and their care were conducted in compliance with the Guide for the Care and Use of Laboratory Animals[15] and ARRIVE guidelines[16],[17]. Animal experiments were approved by the Animal Care and Use Committee of Osaka University (approval No. DouyakuR01-3–1) and conducted at Osaka University in accordance with the guidelines. LC–MS/MS data were obtained using a Xevo TQ-S mass spectroscopy system (Waters Corp., Milford, MA, USA) connected to an ACQUITY UPLC system (Waters) equipped with a BEH C18 column (1.7 μm, 2.1 × 50 mm, Waters). Mobile phase A was 0.1% formic acid in water and mobile phase B was 0.1% formic acid in acetonitrile. The gradient elution profile was 2% B at 0 min to 98% B at 1.8 min, and the flow rate was 0.5 mL/min.
# (§2) For evaluation of stability, KS-58 was incubated with commercial hepatic microsomes (XenoTech Ltd, KS, USA) in X medium supplemented with nicotinamide adenine dinucleotide phosphate for 10 and 60 min at 37 °C. The fraction (%) remaining in the medium was determined using the LC–MS/MS system (Waters). We also examined the fraction (%) remaining in fresh mouse blood after 60 and 120 min of incubation at 37 °C using the same LC–MS/MS system.
# [2] = Pharmacokinetics after intravenous injection; type: in vivo, mouse; conditions: 10 mg/kg i.v., LC-MS/MS
# Experimental: as §1
# For pharmacokinetics studies, KS-58 was dissolved in saline and administered intravenously to female BALB/c mice at 10 mg/kg. Serial blood samples (20 μL) were collected from the tail vein using heparinized tips at 7.5, 15, 30, 60, 120, 240, 320, and 1440 min after KS-58 administration. Aliquots (5 μL) of plasma obtained from each blood sample were treated with 50 μL acetonitrile and the organic layer was injected onto the LC–MS/MS system. Pharmacokinetic parameters were obtained by fitting the plasma concentration–time data to a noncompartmental model using PKPlus software (Northern Science Consulting Inc, Sapporo, Japan).
# [3] = Stability in mouse liver microsomes; type: in vitro ADME; conditions: mouse hepatic microsomes (XenoTech), with NADP cofactor, 37 °C, 1 h incubation, LC-MS/MS, read-out: fraction of initial concentration remaining in mouse liver microsomes
# Experimental: as §1, §2
# [4] = Stability in mouse whole blood; type: in vitro ADME; conditions: fresh whole blood, 37 °C, 2 h incubation, LC-MS/MS, read-out: fraction of initial concentration intact in whole blood
# Experimental: as §1, §2
# [5] = Systemic safety in CT26 tumor-bearing mice (body and organ weights, kidney and liver histomorphology); type: in vivo, mouse
# Experimental: Experimental procedures that involved animals and their care were conducted in compliance with the Guide for the Care and Use of Laboratory Animals[15] and ARRIVE guidelines[16],[17]. Animal experiments were approved by Animal Care and Use Committee of UNITECH Co. Ltd. (Kashiwa, Japan) (approval No. AGR IMF-210415A-30) and conducted at UNITECH in accordance with the guidelines. To establish subcutaneous allograft tumors, 1 × 10^6 CT26 cells/100 µL were subcutaneously injected into the left groin region of BALB/cCrSlc female mice (7 weeks old; Japan SLC, Inc., Shizuoka, Japan). Immediately before treatment, KS-58 was dissolved in DMSO and then diluted tenfold in normal saline. Tumor-baring mice in vehicle control, KS-58 (low), and KS-58 (high) groups were injected intravenously with vehicle (1:10 DMSO to saline, v/v), 10 mg/kg KS-58 solution, or 40 mg/kg KS-58 solution, respectively, once every 2 days for 17 days (n = 8 mice per major group, n = 3 mice per satellite group) (Fig. 1B). For anti-PD-1 monotherapy or combination treatment, GoInVivo Purified anti-mouse PD-1 (CD279, Cat.#114114, BioLegend, San Diego, CA, USA) was dissolved in PBS and injected intraperitoneally at 50 mg/kg on days 6, 8, and 10 (n = 8 mice in major groups, n = 3 in satellite groups). Tumor growth rate was recorded on day 1, 4, 8, 11, 15, and 17 by measuring the major and minor axes with a digital caliper. Measurements were transformed into tumor volumes using the formula tumor volume (mm^3) = major axis × minor axis^2 × 0.5. Tumors (with surrounding skin), liver, and kidneys were collected from satellite groups on day 15, fixed in formalin, and then maintained in 70% ethanol for histological analyses. Tumor, liver, and kidneys were collected from major groups on day 17 within 3 h of the last injection and weighed. The tumors were subsequently frozen in liquid nitrogen and stored at − 80 °C until homogenization for Western blotting.
# Tumors, livers, and kidneys were harvested from mice and fixed with 10% neutral-buffered formalin. […]
# [6] = Translocation to blood cells; type: in vitro ADME; conditions: whole blood (Fig. 4D)
# [7] = estimated using RP-HPLC; cited from earlier work
# [8] = Plasma protein binding (dialysis); type: in vitro ADME; conditions: dialysis of plasma against PBS pH 7.4, 5 h, 37 °C, LC-MS/MS, human and mouse plasma (Fig. 4E)
# Experimental: as §1
# For evaluation of plasma protein binding, the plasma compartment containing KS-58 was dialyzed against PBS (pH 7.4) for 5 h at 37 °C and the concentrations remaining in each compartment were quantified by LC–MS/MS.
# [9] = satellite groups, day 15, HE staining, n = 3
smiles,measurement,setting,value
CCCCCCC[C@@H]1NC(=O)[C@@H]2CSCCCSC[C@@H](NC(=O)[C@H](Cc3c[nH]c4ccccc34)NC(=O)[C@@H]3CCCN3C(=O)[C@H](CC(=O)O)NC(=O)[C@H](Cc3ccc(F)cc3)NC(=O)[C@H](CO)NC1=O)C(=O)NCCC(=O)N1CCC[C@H]1C(=O)N[C@@H](CCCC)C(=O)N2 [KS-58] (cyclo([βAla]P[Nle]C[X1]S[Phe(4-F)]DPW[dC]); linker 4-11 via X2),remaining at 1 h,[1],77%
same,time at which plasma concentration decreased to ~50% of the initial concentration,[2]; mice,about 30 min
same,plasma concentration after 4 h,"[2]; mice, limit of detection ~250 nM",below the limit of detection
same,half-life,"[2]; mouse, iv, female BALB/c mice, plasma, noncompartmental, mean ± SD, n = 3",~30 min
same,remaining at 1 h,[3],46.2%
same,remaining at 2 h,[4],92.3%
same,body weight gain/loss and weights of liver and kidney vs vehicle controls,"[5]; KS-58 10 or 40 mg/kg i.v. every 2 days for 17 days, n = 8",neither body weight gain/loss (Fig. 2B) nor the weights of liver and kidney (Fig. 2C) were significantly altered
same,kidney histomorphology,[5]; [9],No obvious histological changes in any of the nephron segments
same,liver histomorphology,[5]; [9],hepatocellular hypertrophy with cytoplasmic eosinophilic change
same,translocation into blood cells,[6],a substantial fraction of KS-58 was translocated into blood cells
same,half-life in whole blood,[7],~ 60 min
same,fraction bound to plasma proteins,[8],more than 90%
same,fraction unbound at 5 h,[8]; read-out: free fraction in plasma,< 0.1
